Literature values, collected in patent publication US20090214462A1, “COCKCROACH JELLY BAIT” (priority 2004, published 2009).

Test system: cockroaches
Settings: kill by intake; general statement

SMILES: OB(O)O [Boric acid]
- Time until cockroaches die after intake: one to eight

SMILES: CCOP(=S)(OCC)Oc1nc(Cl)c(Cl)cc1Cl [Chlorpyrifos]
- Time until cockroaches die after intake: 2 to 3 days
